# According to US9636368B2, “Strain of Lactobacillus rhamnosus and its metabolites for use in inhibiting xanthine oxidase and treating gout” (Food Industry Research and Development Institute, priority 2014, dated 2017):
# Tested on: uric acid in the serum of the mice
# Test: Treatment of experimental uricemia: potassium oxonate-induced high serum uric acid in ICR mice
# Assay type: in vivo
# Settings: potassium oxonate (400 mg/kg) + allopurinol 10 mg/kg, fed via feeding tube, sacrificed after one hour, oxonate alone 4.91 ± 0.08, saline control 3.51 ± 0.02
# Method: Lactobacillus rhamnosus I21 was inoculated on an MRS plate and cultured at 37° C. for 3 days. Bacteria were scraped from the plate using a 1 μl sterile inoculation loop, inoculated into MRS broth, and grown at 37° C. for 1 day to prepare an inoculum. The inoculum (30 ml) was then added into 3 L MRS broth in a 5 L fermenter and grown at 37° C. for 2 days. The fermentation broth was centrifuged at 3000 rpm for 15 min. The supernatant was collected and lyophilized to produce the Lactobacillus rhamnosus I21 fermentation product.
# ICR mice were used as experimental animals. Potassium oxonate, a uricase inhibitor, was used to induce a high level of uric acid in the serum of the mice. Mice were fasted for one hour and then fed saline or potassium oxonate (400 mg/kg) via a feeding tube. After one hour, potassium oxonate-treated mice were fed saline, allopurinol (10 mg/kg), or a Lactobacillus rhamnosus I21 fermentation product (150 mg or 200 mg resuspended in saline per mouse) prepared as described above. Ten animals were used for each experimental group and for the control group. The animals were sacrificed after one hour and the level of uric acid in their serum was analyzed.
smiles,measurement,value
Oc1ncnc2[nH]ncc12 [allopurinol],serum uric acid concentration,2.82 ± 0.28 mg/dL
